Experimental data published in patent publication US4068070A, “α-Cyanoamine compounds and a process for producing the same” (Fuji Chemical Industry Co., Ltd., priority 1974, dated 1978).

Assays:
Format in all cases: in vivo, mongrel adult dogs
[1] = system: coronary sinus out flow; assay: Effects on coronary sinus out flow
Summary of the method: (§1)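 Anaesthetised (pentobarbital sodium) thoracotomised mongrel dogs of either sex, about 10 kg, dosed intravenously via brachial vein, compounds in 0.2% CMC, HCl solution (pH 6) or saline. Arterial pressure via carotid cannula transducer, aortic and coronary sinus outflow by electromagnetic flowmeter, sinus pO2 by electrode after Morawitz cannulation.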

[2] = system: arterial mean blood pressure; assay: Effects on arterial mean blood pressure
Summary of the method: as §1

[3] = system: coronary sinus oxygen tension; assay: Effects on coronary sinus oxygen tension
Summary of the method: as §1

[4] = system: heart rate; assay: Effects on heart rate
Summary of the method: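 Adult mongrel dogs of both sexes were anesthetized with pentobarbital and thoracotomized. Test agents, suspended or dissolved in 0.2% CMC, pH 6 HCl solution or saline, were injected intravenously into the brachial vein. Hemodynamic and coronary sinus parameters were then recorded.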

[5] = system: aortic blood flow; assay: Effects on aortic blood flow
Summary of the method: as §1

COc1ccc(C(C#N)N2CCNCC2)cc1OC (stereo not shown) [Compound F]
Changes(%) of basal values, coronary sinus out flow ([1]; 2.0 mg/kg i.v., 1 min): +2.9%
Changes(%) of basal values, coronary sinus out flow ([1]; 2.0 mg/kg i.v., 5 min): -1.7%
Changes(%) of basal values, coronary sinus out flow ([1]; 2.0 mg/kg i.v., 10 min): -4.4%
Changes(%) of basal values, coronary sinus out flow ([1]; 2.0 mg/kg i.v., 20 min): -3.1%
Changes(%) of basal values, coronary sinus out flow ([1]; 2.0 mg/kg i.v., 30 min): -1.0%
Changes(%) of basal values, coronary sinus out flow ([1]; 2.0 mg/kg i.v., 40 min): -0.2%
Changes(%) of basal values, coronary sinus out flow ([1]; 2.0 mg/kg i.v., imm.): +12.4%
Changes(%) of basal values, coronary sinus out flow ([1]; 6.0 mg/kg i.v., 1 min): +68.6%
Changes(%) of basal values, coronary sinus out flow ([1]; 6.0 mg/kg i.v., 5 min): +7.4%
Changes(%) of basal values, coronary sinus out flow ([1]; 6.0 mg/kg i.v., 10 min): +0.1%
Changes(%) of basal values, coronary sinus out flow ([1]; 6.0 mg/kg i.v., 20 min): -8.2%
Changes(%) of basal values, coronary sinus out flow ([1]; 6.0 mg/kg i.v., 30 min): -5.3%
Changes(%) of basal values, coronary sinus out flow ([1]; 6.0 mg/kg i.v., 40 min): -2.1%
Changes(%) of basal values, coronary sinus out flow ([1]; 6.0 mg/kg i.v., imm.): +74.5%
Effects on coronary sinus out flow (in words) ([1]; i.v., anesthetized dogs): increased markedly coronary sinus out flow immediately after administration, effect of which was, however, relatively transitory
Changes (%) of basal values, arterial mean blood pressure ([2]; 2.0 mg/kg i.v., 1 min): -1.3%
Changes (%) of basal values, arterial mean blood pressure ([2]; 2.0 mg/kg i.v., 5 min): -4.9%
Changes (%) of basal values, arterial mean blood pressure ([2]; 2.0 mg/kg i.v., 10 min): -3.3%
Changes (%) of basal values, arterial mean blood pressure ([2]; 2.0 mg/kg i.v., 20 min): -2.1%
Changes (%) of basal values, arterial mean blood pressure ([2]; 2.0 mg/kg i.v., 30 min): -0.4%
Changes (%) of basal values, arterial mean blood pressure ([2]; 2.0 mg/kg i.v., 40 min): 0%
Changes (%) of basal values, arterial mean blood pressure ([2]; 2.0 mg/kg i.v., imm.): +2.3%
Changes (%) of basal values, arterial mean blood pressure ([2]; 6.0 mg/kg i.v., 1 min): +15.8%
Changes (%) of basal values, arterial mean blood pressure ([2]; 6.0 mg/kg i.v., 5 min): -9.3%
Changes (%) of basal values, arterial mean blood pressure ([2]; 6.0 mg/kg i.v., 10 min): -12.5%
Changes (%) of basal values, arterial mean blood pressure ([2]; 6.0 mg/kg i.v., 20 min): -10.0%
Changes (%) of basal values, arterial mean blood pressure ([2]; 6.0 mg/kg i.v., 30 min): -5.2%
Changes (%) of basal values, arterial mean blood pressure ([2]; 6.0 mg/kg i.v., 40 min): -2.8%
Changes (%) of basal values, arterial mean blood pressure ([2]; 6.0 mg/kg i.v., imm.): +16.0%
Effects on arterial mean blood pressure (in words) ([2]; i.v., anesthetized dogs): an increase in blood pressure was observed immediately after administration, but thereafter, a long duration hypotensive effect was observed
Changes(%) of basal values, coronary sinus oxygen tension ([3]; 2.0 mg/kg i.v., 1 min): +1.4%
Changes(%) of basal values, coronary sinus oxygen tension ([3]; 2.0 mg/kg i.v., 5 min): -1.1%
Changes(%) of basal values, coronary sinus oxygen tension ([3]; 2.0 mg/kg i.v., 10 min): -1.4%
Changes(%) of basal values, coronary sinus oxygen tension ([3]; 2.0 mg/kg i.v., 20 min): -0.8%
Changes(%) of basal values, coronary sinus oxygen tension ([3]; 2.0 mg/kg i.v., 30 min): 0%
Changes(%) of basal values, coronary sinus oxygen tension ([3]; 2.0 mg/kg i.v., 40 min): 0%
Changes(%) of basal values, coronary sinus oxygen tension ([3]; 2.0 mg/kg i.v., imm.): +10.9%
Changes(%) of basal values, coronary sinus oxygen tension ([3]; 6.0 mg/kg i.v., 1 min): +20.3%
Changes(%) of basal values, coronary sinus oxygen tension ([3]; 6.0 mg/kg i.v., 5 min): +3.9%
Changes(%) of basal values, coronary sinus oxygen tension ([3]; 6.0 mg/kg i.v., 10 min): +1.0%
Changes(%) of basal values, coronary sinus oxygen tension ([3]; 6.0 mg/kg i.v., 20 min): -4.1%
Changes(%) of basal values, coronary sinus oxygen tension ([3]; 6.0 mg/kg i.v., 30 min): -1.2%
Changes(%) of basal values, coronary sinus oxygen tension ([3]; 6.0 mg/kg i.v., 40 min): -0.3%
Changes(%) of basal values, coronary sinus oxygen tension ([3]; 6.0 mg/kg i.v., imm.): +20.1%
Effects on coronary sinus oxygen tension (in words) ([3]; i.v., anesthetized dogs): slightly transitory as compared with those of compounds as mentioned above
increased oxygen tension ([3]; i.v., anesthetized dogs): about 20%
Changes(%) of basal values, heart rate ([4]; 2.0 mg/kg i.v., 1 min): +2.6%
Changes(%) of basal values, heart rate ([4]; 2.0 mg/kg i.v., 5 min): -1.5%
Changes(%) of basal values, heart rate ([4]; 2.0 mg/kg i.v., 10 min): -2.3%
Changes(%) of basal values, heart rate ([4]; 2.0 mg/kg i.v., 20 min): -1.8%
Changes(%) of basal values, heart rate ([4]; 2.0 mg/kg i.v., 30 min): -0.7%
Changes(%) of basal values, heart rate ([4]; 2.0 mg/kg i.v., 40 min): 0%
Changes(%) of basal values, heart rate ([4]; 2.0 mg/kg i.v., imm.): +1.4%
Changes(%) of basal values, heart rate ([4]; 6.0 mg/kg i.v., 1 min): +3.7%
Changes(%) of basal values, heart rate ([4]; 6.0 mg/kg i.v., 5 min): -2.2%
Changes(%) of basal values, heart rate ([4]; 6.0 mg/kg i.v., 10 min): -3.6%
Changes(%) of basal values, heart rate ([4]; 6.0 mg/kg i.v., 20 min): -3.3%
Changes(%) of basal values, heart rate ([4]; 6.0 mg/kg i.v., 30 min): -2.0%
Changes(%) of basal values, heart rate ([4]; 6.0 mg/kg i.v., 40 min): -1.4%
Changes(%) of basal values, heart rate ([4]; 6.0 mg/kg i.v., imm.): -7.2%
Effects on heart rate (in words) ([4]; i.v., anesthetized dogs): slight negative chronotropic effects accompanied by an increase in heart rate immediately after administration
Changes (%) of basal values, aortic blood flow ([5]; 2.0 mg/kg i.v., 1 min): +0.7%
Changes (%) of basal values, aortic blood flow ([5]; 2.0 mg/kg i.v., 5 min): -4.1%
Changes (%) of basal values, aortic blood flow ([5]; 2.0 mg/kg i.v., 10 min): -1.2%
Changes (%) of basal values, aortic blood flow ([5]; 2.0 mg/kg i.v., 20 min): 0%
Changes (%) of basal values, aortic blood flow ([5]; 2.0 mg/kg i.v., 30 min): 0%
Changes (%) of basal values, aortic blood flow ([5]; 2.0 mg/kg i.v., 40 min): 0%
Changes (%) of basal values, aortic blood flow ([5]; 2.0 mg/kg i.v., imm.): +9.2%
Changes (%) of basal values, aortic blood flow ([5]; 6.0 mg/kg i.v., 1 min): +12.1%
Changes (%) of basal values, aortic blood flow ([5]; 6.0 mg/kg i.v., 5 min): -2.2%
Changes (%) of basal values, aortic blood flow ([5]; 6.0 mg/kg i.v., 10 min): -2.0%
Changes (%) of basal values, aortic blood flow ([5]; 6.0 mg/kg i.v., 20 min): -1.2%
Changes (%) of basal values, aortic blood flow ([5]; 6.0 mg/kg i.v., 30 min): 0%
Changes (%) of basal values, aortic blood flow ([5]; 6.0 mg/kg i.v., 40 min): 0%
Changes (%) of basal values, aortic blood flow ([5]; 6.0 mg/kg i.v., imm.): +20.5%
Effects on aortic blood flow (in words) ([5]; i.v., anesthetized dogs): an increase in blood flow immediately after administration, followed by a decrease in blood flow
